# Assays:
# [1] = tested on: miR-124; assay: Modulation of miR-124 expression in PBMCs (qPCR, relative quantification); assay type: cell-based, human; conditions: for fold induction at 5 µM / fold induction at 10 µM: Homo sapiens, PBMC, 144 h, read-out: Fold-change compared to DMSO treated cells (Relative quantification) Mean; for fold induction at 5 µM / Fold-change compared to DMSO treated cells (Relative quantification) Mean / fold induction at 10 µM: miR-124 expression, PBMCs of healthy donors; for fold induction at 5 µM: quinoline derivatives 5 μM, extraction day 6, mean over 1 to 7 donors; for effect on the overexpression of miR-124 in PBMCs: known antiretrovirals, PBMCs from four donors; for Fold-change compared to DMSO treated cells (Relative quantification) Mean / fold induction at 10 µM: antiretroviral drugs 10 μM, extraction day 6, 4 donors
# Experimental: Briefly, 60-70 mL of buffy-coat are poured in a flask of 175 cm^2, and the volume is adjusted to 300 mL using PBS in order to obtain a dilution of about 5-fold of the buffy coat. […] The lymphocyte ring is recovered from the Falcon™ tube with a transfer pipette (Pastette®) and then washed with PBS using centrifugation for 10 minutes at 290 rcf and at ambient temperature until the supernatant becomes clear.
# Cells are incubated for 48 hours at 37° C. under 5% CO2.
# Six-well plates are used for the screening. Within each well comprising 3.10^6 cell/4 ml RPMI supplemented with 10% fetal calf serum and 40 U/mL IL-2 (Peprotech Ref 200-02) are added screened molecules. 100% DMSO (4 μL) is added to the well and tested as a negative control.
# Each tested condition is set up as described here below and the final corresponding volume is adjusted accordingly in the well: • 1) Quinoline derivatives in 100% DMSO—(5 μM and final volume 4 μL) • 2) Antiretroviral drugs: Maraviroc, Efavirenz, Darunavir, AZT (10 μM for all—final volume 4 μL).
# The wells are incubated for three days at 37° C. under 5% CO2 Medium is changed (Day 3) according to standard protocols. Briefly, plates are centrifugated at 290 rcf for 5 minutes and 3 mL of supernatant is removed. 3 mL of RPMI supplemented with 10% fetal calf serum and 40 U/mL IL-2 is then added with 3 μL of a stock solution of screened molecule at 5 mM in 100% DMSO or 3 μL of 100% DMSO as a negative control.
# Cells are recovered within Falcon™ tubes of 15 mL, centrifugated at 290 rcf for 5 minutes, and then washed in 10 mL PBS and further centrifugated at 290 rcf for 5 minutes. Cells are then resuspended in 1 mL PBS and counted.
# 6×10^6 cells are recovered and centrifugated at 290 rcf for 5 minutes.
# The miRNA extraction is achieved using the protocol from Macherey Nagel Nucleospin® miRNA extraction kit using an elution volume for RNAs of 50 μL and miRNAs of 30 μL, and further stored at −20° C.
# The reverse transcription step is followed for 12 μL of miRNA using the miScript RT II reverse transcription (RT) kit from QIAGEN© using the miScript HiSpec buffer, and further stored at −20° C.
# The quantitative PCR step is achieved using the QIAGEN© miScript SYBR® Green PCR kit and miScript Primer Assays according to the manufacturer's protocol.
# The reaction is repeated in triplicates in a 384-well plate according to the manufacturer's protocol on a LightCycler® […] Roche Real-Time PCR system. Cycling conditions are also set up according to the manufacturer's protocol: […]
# [2] = tested on: Collagen induced arthritis model; assay: Collagen induced arthritis mouse model; assay type: in vivo, DBA/1 mice
# Experimental: Groups of 9 to -10-week-old DBA/1 mice were immunized intradermally with bovine collagen type II emulsified in a 1:1 proportion with complete Freund's adjuvant. Mice were challenged 21 days after the first immunization and the phenotypic appearance of arthritis was evaluated by monitoring every second day the thickness of each hind paw ankle joint thickness was measured using a dial caliper (0- to 10-mm) test gauge using a thickness gage. Mice were treated daily for two weeks with quinoline derivatives candidates suspended in methylcellulose or methylcellulose (MC) only and the development of the disease was then monitored. Statistical analysis was performed using Mann-Whitney test, asterisk indicates a significant difference ([…]).
# [3] = tested on: (DSS-) induced colitis model; assay: Dextran Sulphate Sodium (DSS-) induced colitis mouse model; assay type: in vivo, C57BL/6 mice
# Experimental: A commonly used mouse model of inflammatory bowel disease is the Dextran Sulphate Sodium (DSS-) induced colitis model. Typical histological changes of acute DSS-colitis are mucin depletion, epithelial degeneration and the eventual destruction of the mucosal barrier which leads to inflammation and colitis.
# Three groups of 6-week-old C57BL/6 mice (8 mice each) received DSS administration in the drinking water (2.5%) for 9 days (FIGS. 1-2). Weight loss and water consumption was measured every day. The latter was determined by measuring the volume loss of the drinking water in the respective devices. The mice were treated by gavage with 200 ul of 0.5 MC alone (DSS+MC group) or together with 40 mg/kg of compound 24 (DSS+MC+24 group). At the point when control mice have loosed up to 20% of their weight (DSS), the treatment with DSS is stopped and replaced with drinking water. The other treatments were continued for 21 days.
# Three groups of 16-week-old C57BL/6 mice (7 mice each) received 2.5% DSS in drinking water (FIG. 3). The mice were treated by gavage with 200 ul of 0.5 MC alone (DSS+MC group) or together with 40 mg/kg of compound 24 (DSS+MC+24 group). The mice were treated with DSS for 6 days and at the point when control mice have loosed up to 15% of their weight (DSS), all the mice were euthanized and colon were taken for further analyses.
# Colons were measured using a ruler and for histological analysis the entire colon was prepared according to the Swiss roll procedure (Whittem el al.; “Murine Colitis Modeling using Dextran Sulfate Sodium (DSS)”, J Vis Exp 2010 (35) 1652) fixed with formaldehyde and embedded in paraffin. 4 μm sections were de-paraffinized and stained with hematoxylin and eosin and analyzed for lesion size and other alterations (FIGS. 4-6). We compared untreated and treated mice during the DSS-cycle with quinoline derivatives suspended in methylcellulose or methylcellulose (MC) only. Statistical analysis was performed using Mann-Whitney test, asterisk indicates a significant difference ([…]), two asterisks indicate a very significant difference ([…])
Molecule,fold induction at 5 µM [1],further results
FC(F)(F)c1ccnc(Nc2ccc3c(OCCN4CCCCC4)ccc(Cl)c3n2)c1 [Compound 6],30.9,
Cc1cc2c(N)ccc(Cl)c2nc1Nc1ccc(OC(F)(F)F)c(Cl)c1 [Compound 27],1.42,
"FC(F)(F)Oc1ccc(Oc2ccc3cccc(Cl)c3n2)cc1 [Compound 48, 8-chloro-2-(4-(trifluoromethoxy)phenoxy)quinoline]",24,
FC(F)(F)c1ccc(Nc2ccc3cccc(Cl)c3n2)nc1 [Compound 2],66.7,
Fc1ccc(Nc2ccc3cccc(Cl)c3n2)nc1 [Compound 3],48.5,
Cc1ccnc(Nc2ccc3cccc(Cl)c3n2)c1 [Compound 1],32,
FC(F)(F)c1ccnc(Nc2ccc3cccc(Cl)c3n2)c1 [Compound 12],16.3,
COc1ccc(Nc2ccc3cccc(Cl)c3n2)cc1 [Compound 23],45.1,
"Cc1cn([C@H]2C[C@H](N=[N+]=[N-])[C@@H](CO)O2)c(=O)[nH]c1=O [AZT, reference compound]",,"effect on the overexpression of miR-124 in PBMCs [1]: none of the known antiretroviral (Maraviroc, Effavirenz, Darunavir or AZT) has any significant effect; Fold-change compared to DMSO treated cells (Relative quantification) Mean [1]: 0.90"
Clc1cccc2ccc(Nc3cnccn3)nc12 [Compound 45],34.2,
"FC(F)(F)c1ccnc(Nc2ccc3c(OCCCN4CCCCC4)ccc(Cl)c3n2)c1 [Compound 8, 8-chloro-5-(3-(piperidin-1-yl)propoxy)-N-(4-(trifluoromethyl)pyridin-2-yl)quinolin-2-amine]",7.97,
"FC(F)(F)Oc1ccc(Nc2ccc3cccc(Cl)c3n2)cc1 [Compound 24, 8-chloro-N-[4-(trifluoromethoxy)phenyl]quinolin-2-amine]",32.5,"swelling of joints ([2]; hind paw ankle joint thickness, MC only treated about 2.2 mm (FIG. 6)): 1.9 mm; mice that displayed signs of inflammation ([2]; treated daily for two weeks, 8 out of 10 MC treated mice developed disease): one out of ten; weight loss in average ([3]; after 5 days of DSS-administration, 40 mg/kg by gavage in MC, MC or untreated mice 10% to 20%): < 1%; alterations in lymphoid organs such as Peyer's Patches ([3]; after two DSS-cycles): decrease of alterations in lymphoid organs such as Peyer's Patches; average size of the lesion area ([3]; colon histology (FIG. 5), versus 8.4 in MC only treated mice): 2.1 mm^2; number of lesions ([3]; colon histology, compared between cohorts (FIG. 4)): comparable number of lesions; water consumption ([3]; drug treated mice, DSS model, 40 mg/kg by gavage): higher water consumption; average size of the lesion area ([3]; mice exposed to two DSS-cycles, vs 12.2 in MC only treated mice): 3.8 mm^2; weight loss during the second administration of DSS ([3]; second cycle of DSS, 40 mg/kg by gavage): significantly control weight loss"
"CN(c1cc(C(F)(F)F)ccn1)c1ccc2cccc(Cl)c2n1 [Compound 10, 8-chloro-N-methyl-N-(4-(trifluoromethyl)pyridin-2-yl)quinolin-2-amine]",21.1,
"FC(F)(F)c1ccnc(Nc2cc(NCCCN3CCCCC3)c3cccc(Cl)c3n2)c1 [Compound 9, 8-chloro-N^4-(3-(piperidin-1-yl)propyl)-N^2-(4-(trifluoromethyl)pyridin-2-yl)quinoline-2,4-diamine]",112,
Nc1ccc(Cl)c2nc(Nc3ccc(OC(F)(F)F)c(Cl)c3)ccc12 [Compound 26],6.13,
Nc1cc(OC(F)(F)F)ccc1Nc1ccc2cccc(Cl)c2n1 [Compound 25],14.3,
"CC(C)CN(C[C@@H](O)[C@H](Cc1ccccc1)NC(=O)O[C@H]1CO[C@H]2OCC[C@H]21)S(=O)(=O)c1ccc(N)cc1 [Darunavir, reference compound]",,"fold induction at 10 µM [1]: 1.08; effect on the overexpression of miR-124 in PBMCs [1]: none of the known antiretroviral (Maraviroc, Effavirenz, Darunavir or AZT) has any significant effect"
"FC(F)(F)Oc1ccc(N(CCCN2CCCCC2)c2ccc3cccc(Cl)c3n2)cc1 [Compound 30, 8-chloro-N-(3-(piperidin-1-yl)propyl)-N-(4-(trifluoromethoxy)phenyl)quinolin-2-amine]",9.88,
"O=C1Nc2ccc(Cl)cc2[C@@](C#CC2CC2)(C(F)(F)F)O1 [Effavirenz, Efavirenz, reference compound]",,"fold induction at 10 µM [1]: 0.46; effect on the overexpression of miR-124 in PBMCs [1]: none of the known antiretroviral (Maraviroc, Effavirenz, Darunavir or AZT) has any significant effect"
"CN(c1ccc(OC(F)(F)F)cc1)c1ccc2cccc(Cl)c2n1 [Compound 28, 8-chloro-N-methyl-N-(4-(trifluoromethoxy)phenyl)quinolin-2-amine]",22.2,
"FC(F)(F)c1ccnc(Oc2ccc3cccc(Cl)c3n2)c1 [Compound 46, 8-chloro-2-((4-(trifluoromethyl)pyridin-2-yl)oxy)quinoline]",6.23,
Nc1ccc(Cl)c2nc(Nc3cc(C(F)(F)F)ccn3)ccc12 [Compound 7],7.54,
FC(F)(F)c1ccnc(Nc2ccc3c(OCCN4CCOCC4)ccc(Cl)c3n2)c1 [Compound 5],26.8,
Maraviroc [reference compound],,"effect on the overexpression of miR-124 in PBMCs [1]: none of the known antiretroviral (Maraviroc, Effavirenz, Darunavir or AZT) has any significant effect; Fold-change compared to DMSO treated cells (Relative quantification) Mean [1]: 0.73"
"FC(F)(F)c1ccnc(Nc2cc(NCCN3CCOCC3)c3cccc(Cl)c3n2)c1 [Compound 11, 8-chloro-N^4-(2-morpholinoethyl)-N^2-(4-(trifluoromethyl)pyridin-2-yl)quinoline-2,4-diamine]",17.4,
Cc1ccnc(Nc2ccc3cccc(Cl)c3n2)c1N [Compound 4],24.4,
